{
  "source": "patent US20180344680A1",
  "about": "“COMPOSITIONS AND METHODS FOR TREATMENT, AMELIORATION, AND PREVENTION OF DIABETES-RELATED SKIN ULCERS” (THE ARIZONA BOARD OF REGENTS ON BEHALF OF THE UNIVERSITY OF …, priority 2015, published 2018)",
  "key": {"[1]": {"system": "8-oxo-dG", "assay": "Oxidative DNA damage (8-oxo-dG IHC) in wound skin tissues of STZ mice", "assay_type": "in vivo, mouse", "from_the_text": "Diabetes mouse model and treatments. Nrf2^+/+ and Nrf2^-/- C57BL/6 mice were described previously (see, e.g., Jiang T, et al., Diabetes 59:850-860, 2010) and were housed and handled in accordance with the University of Arizona Institutional Animal Care policies. The STZ-induced diabetic model was previously described (see, e.g., Zheng H, et al., Diabetes 60:3055-3066, 2011) and only 8 week old male mice were included in this study. Briefly, three weeks after STZ injections, fasting glucose levels (FGL, 4 h fast) were measured using the AlphaTRAK system (Abbott Laboratory, North Chicago, Ill.) and mice with a FGL higher than or equal to 250 mg/dL were considered diabetic and included in the study (see, e.g., FIG. 2A and FIG. 3A for a detailed timeline). The mice (n=5-8) were then allocated randomly to each of the indicated treatment groups and received corn oil (control), 12.5 mg/kg SF or 50 mg/kg CA intraperitoneally every two days until skin tissues were harvested. One week after the treatments, the mice were anesthetized, their backs were shaved and cleaned. […] Gross wound closure was quantified by ImageJ software, and wound healing was expressed as the percentage of the original wound area that had healed. […] Morphology was assessed by hematoxylin and eosin (H&E) staining (Vector laboratory, Burlingame, Calif.). […]"}, "[2]": {"system": "MMP9", "assay": "MMP9 immunoblot and gelatin zymography in HaCaT cells under high glucose", "assay_type": "cell-based, human", "conditions": "HG HaCaT cells, 5 μmol/L SF or 20 μmol/L CA", "experimental": "Human immortalized keratinocytes HaCaT were obtained from the Arizona Cancer Center (see, e.g., Boukamp P, et al., J Cell Biol 106:761-771, 1988). Cells were grown in Dulbecco's modified Eagle's medium (DMEM) containing low glucose (LG, 5.5 mmol/L) and 10% fetal bovine serum (FBS) in an incubator at 37° C. with 5% CO2. For the experiments, the cells were starved in serum-free LG DMEM for 24 h, then either maintained in LG DMEM or switched to high glucose (HG, 25 mmol/L) DMEM for 2 days (see, e.g., Zheng H, et al., Diabetes 60:3055-3066, 2011; Lan C C, et al., Br J Dermatol 159:1103-1115, 2008). For the treatments, the cells were dosed with 5 μmol/L SF or 20 μmol/L CA.\nsiRNA transfections. […]\nCultured HaCaT cells were harvested in 1× sample buffer (50 mM Tris-HCl pH 6.8, 2% sodium dodecyl sulfate (SDS), 10% glycerol, 100 mM dithiothreitol (DTT), 0.1% bromophenol blue), boiled and sonicated. […] TGF-β1 was measured using the Quantikine human TGF-β1 immunoassay kit (R&D systems; Minneapolis, Minn.) according to the manufacturer's instructions. The absorbance at 450 nm was measured using a Synergy 2 microplate reader (BioTek, Winooski, Vt.) and the amount of TGF-β1 was calculated by standard curve. MMP9 activity was evaluated by gelatin zymography as described elsewhere (see, e.g., Toth M, et al., Methods Mol Biol 878:121-135, 2012; Zhu P, et al., Exp Dermatol 21:123-129, 2012). […]"}},
  "data": [
    {"molecule": "O=CC=Cc1ccccc1", "note": "[CA, Cinnamaldehyde]", "values": [
      {"measurement": "oxidative DNA damage (8-oxo-dG)", "setting": "[1]", "result": "greatly alleviated the oxidative DNA damage"},
      {"measurement": "expression and activity of MMP9", "setting": "[2]", "result": "decreased"}
    ]},
    {"molecule": "C[S@@+]([O-])CCCCN=C=S", "note": "[SF, L-sulforaphane]", "values": [
      {"measurement": "oxidative DNA damage (8-oxo-dG)", "setting": "[1]", "result": "greatly alleviated the oxidative DNA damage"},
      {"measurement": "expression and activity of MMP9", "setting": "[2]", "result": "decreased"}
    ]}
  ]
}
